The text below walks through data of the Deep4Chem optical property database.

The structures appear in SMILES notation.

The data set is described as follows: solvent given as SMILES.

Take `O=[N+]([O-])c1ccc(F)cc1C1CC(c2cccc3ccccc23)=NN1c1ccccc1` (configuration not stated): the absorption maximum (in C1CCCCC1) was found to be 365 nm; the absorption maximum (in C1CCOC1) came out at 374 nm; the absorption maximum (in C1COCCO1) is reported as 372 nm; the absorption maximum (in CC#N) came out at 367 nm; the absorption maximum (in CC(C)O) was determined as 370 nm; the absorption maximum (in CCOC(C)=O) amounted to 371 nm. Moreover, the absorption maximum runs as follows: (in CCOCC) 363 nm; (in CO) 372 nm; (in Cc1ccccc1) 368 nm; (in ClC(Cl)Cl) 363 nm; (in O) 375 nm.

Where the note is “in Cc1ccccc1”, `CC(C)(C)c1ccc2c(c1)c1cc(C(C)(C)C)cc3c1n2-c1cc(-c2ccc(F)cc2)cc2c1B3c1cc(C(C)(C)C)cc3c4cc(C(C)(C)C)ccc4n-2c13` yielded an absorption maximum of 469.92 nm.

The compound `c1cc2c3c(cccc3c1)-c1c-2c2c3ccccc3c3ccc4c5c6c(c7c8ccccc8c8ccc9c%10c%11c(c%12c%13ccccc%13c%13ccc%14c1c1c2c3c4c2c1c1c%14c%13c%12c%10c1c1c9c8c7c5c21)-c1cccc2cccc-%11c12)-c1cccc2cccc-6c12` registered an absorption maximum (in C1CCOC1) of 475 nm.

In turn, `CCOC(=O)CCCCCn1c2ccc(F)cc2c(=O)c2cc3c(cc21)c(=O)c1cc(F)ccc1n3CCCCCC(=O)OCC` showed an absorption maximum (in CO) of 540 nm.

`CCCCOC(=O)c1cc(Cl)c2c3c(Cl)cc4c5c(cc(Cl)c(c6c(Oc7ccc(C(=O)OC)cc7)cc(C(=O)OCCCC)c1c26)c53)C(=O)N(c1c(C(C)C)cccc1C(C)C)C4=O`: the absorption maximum (in Cc1ccccc1) came to 507 nm.

Consider `CCN1c2ccc(/C=N/Nc3ccccn3)cc2Sc2cc(-c3ccc(OC)cc3)ccc21`, for which the absorption maximum (in C1CCOC1) was found to be 381 nm, the absorption maximum (in CS(C)=O) was 386 nm, the absorption maximum (in Cc1ccccc1) was 380 nm and the absorption maximum (in ClCCl) is 383 nm.

`CC(=O)O[B-]1(OC(C)=O)OC(/C=C/c2ccc(C)cc2)=CC(/C=C/c2ccc(C)cc2)=[O+]1`: the absorption maximum is recorded as 434 nm (in C1CCOC1); 434 nm (in CC#N); 434 nm (in CC(C)=O); 442 nm (in CS(C)=O); 436 nm (in Cc1ccccc1); 440 nm (in ClC(Cl)Cl). For the setting “in ClCCl”, this compound gave an absorption maximum of 440 nm.

`CC[n+]1c(-c2ccccc2)c2cc(N)ccc2c2ccc(N)cc21` had an absorption maximum (in O) of 480 nm.

`c1ccc2c(-c3nc4sc5ccccc5c4s3)cccc2c1` yielded an absorption maximum (in CS(C)=O) of 350 nm.

As to `Cc1nc2c(ccc3c2sc(/C=C/c2ccc(N4CCN(C)CC4)cc2)[n+]3C)s1`, the absorption maximum is, setting by setting: (in CO) 505 nm; (in ClC(Cl)Cl) 545 nm.

Compound `CC(C)(C)c1ccc(-c2nc(-c3ccc(C(C)(C)C)cc3)nc(-c3ccc(-n4c5ccccc5c5c6oc7ccccc7c6ccc54)c(C#N)c3)n2)cc1` returned an absorption maximum (in C1CCOC1) of 379.46 nm.

For `CCCCCCCCOc1ccc(C#Cc2ccc(C#Cc3ccc(OCCCCCCCC)c(OCCCCCCCC)c3)c3nc4c5ccccc5c5ccccc5c4nc23)cc1OCCCCCCCC`, the absorption maximum reads like this: (in C1CCOC1) 461 nm; (in Cc1ccccc1) 461 nm; (in ClCCl) 461 nm.

`Nc1cccc2ncccc12` returned an absorption maximum (in CC#N) of 340 nm and an absorption maximum (in O) of 333 nm.

As for `CC(C)(C)c1ccc2c(c1)c1cc(C(C)(C)C)ccc1n2-c1ccc2oc3nc4oc5ccc(C(F)(F)F)cc5c4cc3c2c1`, the absorption maximum by setting is: (in C1CCCCC1) 343 nm; (in C1CCOC1) 338 nm; (in CC#N) 336 nm; (in CS(C)=O) 337 nm; (in Cc1ccccc1) 343 nm; (in ClC(Cl)Cl) 345 nm.

With `O=S(=O)([O-])c1ccccc1/C=C/c1ccc(-c2nnc(-c3ccc(/C=C/c4ccccc4S(=O)(=O)[O-])cc3)o2)cc1`, the absorption maximum worked out at 346 nm (in C1CCOC1), 344 nm (in CC(C)=O) and 348 nm (in CN(C)C=O).

For `C(=C\c1c2ccccc2cc2ccccc12)/c1cnc2ccccc2c1`, the absorption maximum (in CC1CCCCC1) is given as 386 nm and the absorption maximum (in CC#N) was 386 nm.

Compound `COc1ccccc1-c1nc2c3ccccc3c3ccccc3c2n1-c1ccc(C)cc1` showed an absorption maximum (in Cc1ccccc1) of 359 nm.

For the setting “in ClC(Cl)Cl”, `Cc1cccc(C2=Cc3ccc4ccccc4[n+]3[B-](F)(F)O2)c1` had an absorption maximum of 429 nm.

Consider `CN(C)c1ccc(N2c3sc4ccccc4c3Sc3c2sc2ccccc32)cc1`, for which the absorption maximum (in ClCCl) turned out to be 430 nm.

As for `CCN(CC)c1ccc2cc(-c3cn4ccccc4n3)c(=O)oc2c1`, the absorption maximum came out at 408 nm (in C1CCOC1); 421 nm (in CC#N); 424 nm (in CCO); 407 nm (in CCOC(C)=O); 425 nm (in CN(C)C=O); 423 nm (in CO). The absorption maximum came to 428 nm (in CS(C)=O), 407 nm (in Cc1ccccc1), 425 nm (in ClC(Cl)Cl) and 429 nm (in ClCCl).

`COc1ccc(C2=[N+]3C(=Nc4c(-c5cc(OC)c(OC)c(OC)c5)c(Br)c(-c5ccc(OC)cc5)n4[B-]3(F)F)C(c3cc(OC)c(OC)c(OC)c3)=C2Br)cc1` gave an absorption maximum (in Cc1ccccc1) of 689 nm.

Consider `c1ccc(-c2cc3cccc4cc(-c5ccccc5)c5cc(-c6cc7[b-]8c(c6)c(-c6ccccc6)cc6cccc(cc7-c7ccccc7)[n+]86)cc2[b-]5[n+]34)cc1`, for which the absorption maximum (in C1CCCCC1) was 444 nm.

In turn, `CCCC1(CCC)c2cc(-c3ccc(-c4ccc(OC)cc4)o3)ccc2-c2ccc(-c3ccc(-c4ccc(OC)cc4)o3)cc21` returned an absorption maximum (in C1CCCCC1) of 410 nm.

With `CCCC1=Cc2nc1ccc1[nH]c(c3nc(ccc4[nH]c2cc4CCC)C(CCC)=C3)c(CN(C)C)c1CCC`, the absorption maximum (in Cc1ccccc1) worked out at 643 nm.

In turn, `CCCCn1c2ccccc2c2cc(C#Cc3ccc4ccc5cccc6ccc3c4c56)ccc21` displayed an absorption maximum (in ClCCl) of 402 nm.

Compound `CN(C)c1ccc(N2c3sc4ccccc4c3Sc3sc4ccccc4c32)cc1` returned an absorption maximum (in ClCCl) of 319 nm.

On to `COc1cc2cc(OC)c(C#Cc3ccc([N+](=O)[O-])cc3)cc2cc1C#Cc1ccc([N+](=O)[O-])cc1`, for which the absorption maximum is, setting by setting: (in C1CCOC1) 361 nm; (in ClC(Cl)Cl) 362 nm; (in ClCCl) 360 nm.

`C[Si]1(C)O[Si](C)(C)c2cc3c(-c4ccccc4)c4ccccc4nc3cc21` had an absorption maximum (in ClCCl) of 368 nm.

The compound `c1ccc(-c2nc(-c3ccc(N4c5ccccc5Oc5ccccc54)cc3)nn2-c2ccc(N3c4ccccc4Oc4ccccc43)cc2)nc1` registered an absorption maximum (in ClCCl) of 333 nm.

Turning to `N#Cc1ccc(/C=C2\N=C(c3ccccc3)OC2=O)cc1`, the absorption maximum (in C1COCCO1) was determined as 369 nm.

For the compound `N#Cc1cccc2cc[nH]c12`, the absorption maximum runs as follows: (in C1COCCO1) 307.36 nm; (in CC#N) 309.69 nm; (in O) 308 nm.

In the case of `Cc1cc(C)c(C)c(B(c2c(C)c(C)cc(C)c2C)c2c(C)c(C)c(N3c4ccccc4Oc4ccccc43)c(C)c2C)c1C`, for the setting “in CC(C)(C)c1ccc(-n2c3ccc([Si](c4ccccc4)(c4ccccc4)c4ccccc4)cc3c3cc([Si](c4ccccc4)(c4ccccc4)c4ccccc4)ccc32)cc1”, the absorption maximum was 373 nm.

Take `c1ccc2c(c1)Sc1ccccc1N2c1ccc2c(c1)C1(CCCC1)c1cc(N3c4ccccc4Sc4ccccc43)ccc1-2`: the absorption maximum (in Cc1ccccc1) is 308 nm.
